The record followed here is US12286442B2, “Methods and materials for increasing transcription factor eb polypeptide levels” (University of Pittsburgh—Of the Commonwealth System of …, priority 2019, dated 2025).

The subject of data set [1] is BEAS-2B cells. The experiment in a line: Toxicity: compound concentration needed to induce greater than 50 percent of cell loss. The data set is classed as cell-based, human. To be noted: 18 hours incubation. Here is the method:
(§1) Approximately 2300 primary and immortalized human bronchial epithelial cells (BEAS-2B) stably expressing TFEB-EGFP in 25 μL of HITEs media with 10% FBS were dispensed into 384 well plate (Black with glass bottom) and incubated for 8 hours. Compound serial dilution (DMEM low glucose media with 2% FBS, 25 μL volume) were prepared using a robotic liquid hander. Compound solution were then added to the cell plate and incubated for 18 hours. Cells were then fixed with 4% PFA followed by DAPI staining. TFEB localization was imaged on the GFP channel along with the DAPI signal using a Cytation 5 high content imager. Images were processed through Biotek Gen5 software. Specifically, the DAPI signal was used as the primary mask to quantify the nuclear TFEB-GFP signal. Cytosolic TFEB-GFP signal was quantified through expanding the primary mask. The TFEB nuclear/cytosol ratios were calculated from nuclear TFEB-GFP signal/cytosol TFEB-GFP signal, which determined the compound efficacies.
Toxicity was determined by determining the compound concentration needed to induce greater than 50 percent of cell loss. For toxicity, cell loss of greater than 50 percent at a concentration that equals or is greater than 25 μM was represented as cell loss of greater than 50 percent at a concentration less than 25 μM and greater than 1 μM was represented as and cell loss of greater than 50 percent at a concentration that equals or is less than 1 μM was represented as “+++.” The assay results for compounds 1-202, 214-248, 332, 333, and 352-402 are shown in Table A.

Data set [2] relates to TFEB. The experiment in a line: High content screen measuring TFEB nuclear accumulation (TFEB nuclear/cytosol ratio) in BEAS-2B cells stably expressing TFEB-EGFP. It counts as cell-based, human. As to conditions: 18 hours incubation. Here is the method:
FIG. 3. High content screen assay (384 well) measuring TFEB nuclear accumulation. Approximately 2500 primary and immortalized human bronchial epithelial cells (BEAS-2B) stably expressing TFEB-EGFP in 25 μL of HITEs media with 10% FBS were dispensed into 384 well plate (Black with glass bottom) and incubated for 8 hours. Compound serial dilution (DMEM low glucose media with 2% FBS, 25 μL volume) were prepared using a robotic liquid hander. Compound solutions were then added to the cell plate and incubated for 18 hours. Cells were then fixed with 4% PFA followed by DAPI staining. TFEB localization was imaged on the GFP channel along with the DAPI signal using a Cytation 5 high content imager. Images were processed through Biotek Gen5 software; specifically, the DAPI signal was used as the primary mask to quantify the nuclear TFEB-GFP signal. The cytosolic TFEB-GFP signal was quantified through expanding the primary mask. The TFEB nuclear/cytosol ratios were calculated from nuclear TFEB-GFP signal/cytosol TFEB-GFP signal, which determined the compound efficacy. […] Compound activities (μM) were determined by the minimal compound concentration needed to increase TFEB nuclear/cytosol ratio by 25%. Activity: “−” equals >25 μM; “+” equals between 25 μM and >10 μM; “++” equals between ≤10 μM and >1 μM; and “+++” equals […]. N=4.
as §1
Compounds efficacies (μM) were determined by the minimal compound concentration needed to increase TFEB nuclear/cytosol ratio by 25%. Activity: “+” equals >25 μM; “++” equals between ≤25 μM and >1 μM; and “+++” equals ≤1 μM.
A high-content imaging screen was conducted using Beas2B cells that stably express GFP-TFEB.

For `c1ccc2c(Nc3ccc4scnc4c3)nc(-c3ccncc3)nc2c1` [Compound 27], the “toxicity (compound concentration needed to induce greater than 50 percent of cell loss)” value in data set [1] is given as “+ (cell loss of greater than 50 percent at a concentration that equals or is greater than 25 μM was represented as)”. The “efficacy (minimal compound concentration needed to increase TFEB nuclear/cytosol ratio by 25%)” value in data set [2] is listed as “+++ (“+++” equals ≤1 μM)”.

On to `Cn1cnc2cc(Nc3nc(-c4ccncc4)nc4ccccc34)ccc21` [Compound 28], for which, in data set [1], the “toxicity (compound concentration needed to induce greater than 50 percent of cell loss)” value is on record as “+ (cell loss of greater than 50 percent at a concentration that equals or is greater than 25 μM was represented as)”. For the same molecule, the “efficacy (minimal compound concentration needed to increase TFEB nuclear/cytosol ratio by 25%)” value in data set [2] is listed as “+ (“+” equals >25 μM)”.

Consider `Cc1nc2cc(Nc3nc(-c4ccncc4)nc4ccccc34)ccc2[nH]1` [Compound 29], for which the “toxicity (compound concentration needed to induce greater than 50 percent of cell loss)” value in data set [1] is given as “+ (cell loss of greater than 50 percent at a concentration that equals or is greater than 25 μM was represented as)”. The “efficacy (minimal compound concentration needed to increase TFEB nuclear/cytosol ratio by 25%)” value in data set [2] was “++ (“++” equals between ≤25 μM and >1 μM)”.

For the molecule `Cc1cc2c(F)c(Nc3nc(-c4ccncc4)nc4ccccc34)ccc2[nH]1` [Compound 30], the “toxicity (compound concentration needed to induce greater than 50 percent of cell loss)” value in data set [1] was “+++ (cell loss of greater than 50 percent at a concentration that equals or is less than 1 μM was represented as “+++.”)”. In addition, the “efficacy (minimal compound concentration needed to increase TFEB nuclear/cytosol ratio by 25%)” value in data set [2] is recorded as “+++ (“+++” equals ≤1 μM)”.

Turning to `Cn1ncc2cc(Nc3nc(-c4ccncc4)nc4ccccc34)ccc21` [Compound 31], the “toxicity (compound concentration needed to induce greater than 50 percent of cell loss)” value in data set [1] was “+++ (cell loss of greater than 50 percent at a concentration that equals or is less than 1 μM was represented as “+++.”)”. Also, in data set [2], the “efficacy (minimal compound concentration needed to increase TFEB nuclear/cytosol ratio by 25%)” value was “+++ (“+++” equals ≤1 μM)”.

For `Cn1ccc2ccc(Nc3nc(-c4ccncc4)nc4ccccc34)cc21` [Compound 32], the “toxicity (compound concentration needed to induce greater than 50 percent of cell loss)” value in data set [1] is listed as “+++ (cell loss of greater than 50 percent at a concentration that equals or is less than 1 μM was represented as “+++.”)”. Moreover, the “efficacy (minimal compound concentration needed to increase TFEB nuclear/cytosol ratio by 25%)” value in data set [2] is listed as “+++ (“+++” equals ≤1 μM)”.

Take `O=C1NC(=O)c2cc(Nc3nc(-c4ccncc4)nc4ccccc34)ccc21` [Compound 33]: the “toxicity (compound concentration needed to induce greater than 50 percent of cell loss)” value in data set [1] is given as “+ (cell loss of greater than 50 percent at a concentration that equals or is greater than 25 μM was represented as)”. In addition, the “efficacy (minimal compound concentration needed to increase TFEB nuclear/cytosol ratio by 25%)” value in data set [2] is given as “+ (“+” equals >25 μM)”.

In the case of `Cc1nc2ccc(Nc3nc(-c4ccncc4)nc4ccccc34)cc2o1` [Compound 34], the “toxicity (compound concentration needed to induce greater than 50 percent of cell loss)” value in data set [1] is “+ (cell loss of greater than 50 percent at a concentration that equals or is greater than 25 μM was represented as)”. The “efficacy (minimal compound concentration needed to increase TFEB nuclear/cytosol ratio by 25%)” value in data set [2] is reported as “+++ (“+++” equals ≤1 μM)”.

In the case of `c1ccc2c(Nc3ccc4c(c3)CCN4)nc(-c3ccncc3)nc2c1` [Compound 35], the “toxicity (compound concentration needed to induce greater than 50 percent of cell loss)” value in data set [1] was “++ (cell loss of greater than 50 percent at a concentration less than 25 μM and greater than 1 μM was represented as)”. The “efficacy (minimal compound concentration needed to increase TFEB nuclear/cytosol ratio by 25%)” value in data set [2] is “+++ (“+++” equals ≤1 μM)”.

`Cc1nc2cc(Nc3nc(-c4ccncc4)nc4ccccc34)ccc2o1` [Compound 37]: the “toxicity (compound concentration needed to induce greater than 50 percent of cell loss)” value in data set [1] is “+ (cell loss of greater than 50 percent at a concentration that equals or is greater than 25 μM was represented as)”. In addition, the “efficacy (minimal compound concentration needed to increase TFEB nuclear/cytosol ratio by 25%)” value in data set [2] was “++ (“++” equals between ≤25 μM and >1 μM)”.

In the case of `N#Cc1c[nH]c2ccc(Nc3nc(-c4ccncc4)nc4ccccc34)cc12` [Compound 38], the “toxicity (compound concentration needed to induce greater than 50 percent of cell loss)” value in data set [1] was “+ (cell loss of greater than 50 percent at a concentration that equals or is greater than 25 μM was represented as)”. In addition, the “efficacy (minimal compound concentration needed to increase TFEB nuclear/cytosol ratio by 25%)” value in data set [2] is reported as “+ (“+” equals >25 μM)”.

Take `O=c1[nH]c2ccc(Nc3nc(-c4ccncc4)nc4ccccc34)cc2[nH]1` [Compound 39]: the “toxicity (compound concentration needed to induce greater than 50 percent of cell loss)” value in data set [1] is on record as “+ (cell loss of greater than 50 percent at a concentration that equals or is greater than 25 μM was represented as)”. For the same molecule, the “efficacy (minimal compound concentration needed to increase TFEB nuclear/cytosol ratio by 25%)” value in data set [2] is “+ (“+” equals >25 μM)”.

As for `O=C1Cc2cc(Nc3nc(-c4ccncc4)nc4ccccc34)ccc2N1` [Compound 40], the “toxicity (compound concentration needed to induce greater than 50 percent of cell loss)” value in data set [1] is listed as “+ (cell loss of greater than 50 percent at a concentration that equals or is greater than 25 μM was represented as)”. In data set [2], the “efficacy (minimal compound concentration needed to increase TFEB nuclear/cytosol ratio by 25%)” value was “++ (“++” equals between ≤25 μM and >1 μM)”.

As to `c1ccc2c(Nc3ccc4c(c3)OCCN4)nc(-c3ccncc3)nc2c1` [Compound 41], in data set [1], the “toxicity (compound concentration needed to induce greater than 50 percent of cell loss)” value is “++ (cell loss of greater than 50 percent at a concentration less than 25 μM and greater than 1 μM was represented as)”. Also, in data set [2], the “efficacy (minimal compound concentration needed to increase TFEB nuclear/cytosol ratio by 25%)” value is “++ (“++” equals between ≤25 μM and >1 μM)”.

On to `c1ccc2c(Nc3ccc4c(c3)NCCN4)nc(-c3ccncc3)nc2c1` [Compound 42], for which the “toxicity (compound concentration needed to induce greater than 50 percent of cell loss)” value in data set [1] is on record as “+ (cell loss of greater than 50 percent at a concentration that equals or is greater than 25 μM was represented as)”. Further, the “efficacy (minimal compound concentration needed to increase TFEB nuclear/cytosol ratio by 25%)” value in data set [2] is on record as “+++ (“+++” equals ≤1 μM)”.

As to `Fc1cccc(Nc2nc(-c3ccncc3)cc3ccccc23)c1` [Compound 43], the “toxicity (compound concentration needed to induce greater than 50 percent of cell loss)” value in data set [1] was “+ (cell loss of greater than 50 percent at a concentration that equals or is greater than 25 μM was represented as)”. The “efficacy (minimal compound concentration needed to increase TFEB nuclear/cytosol ratio by 25%)” value in data set [2] was “++ (“++” equals between ≤25 μM and >1 μM)”.

With `c1ccc2c(Nc3ccc4[nH]ncc4c3)nc(N3CCOCC3)nc2c1` [Compound 44], in data set [1], the “toxicity (compound concentration needed to induce greater than 50 percent of cell loss)” value is recorded as “+ (cell loss of greater than 50 percent at a concentration that equals or is greater than 25 μM was represented as)”. In data set [2], the “efficacy (minimal compound concentration needed to increase TFEB nuclear/cytosol ratio by 25%)” value is given as “+++ (“+++” equals ≤1 μM)”.

On to `Cc1cnccc1-c1nc(Nc2ccc3[nH]ncc3c2)c2ccccc2n1` [Compound 45], for which the “toxicity (compound concentration needed to induce greater than 50 percent of cell loss)” value in data set [1] is listed as “+ (cell loss of greater than 50 percent at a concentration that equals or is greater than 25 μM was represented as)”. In data set [2], the “efficacy (minimal compound concentration needed to increase TFEB nuclear/cytosol ratio by 25%)” value is listed as “+ (“+” equals >25 μM)”.

Take `Cc1cc(F)cc(Nc2nc(N3CCOCC3)nc3ccccc23)c1` [Compound 46]: in data set [1], the “toxicity (compound concentration needed to induce greater than 50 percent of cell loss)” value is given as “+ (cell loss of greater than 50 percent at a concentration that equals or is greater than 25 μM was represented as)”. For the same molecule, the “efficacy (minimal compound concentration needed to increase TFEB nuclear/cytosol ratio by 25%)” value in data set [2] is recorded as “+ (“+” equals >25 μM)”.

With `Fc1cc(-c2nc(Nc3ccc4[nH]ncc4c3)c3ccccc3n2)ccn1` [Compound 47], the “toxicity (compound concentration needed to induce greater than 50 percent of cell loss)” value in data set [1] is “+++ (cell loss of greater than 50 percent at a concentration that equals or is less than 1 μM was represented as “+++.”)”. Moreover, the “efficacy (minimal compound concentration needed to increase TFEB nuclear/cytosol ratio by 25%)” value in data set [2] is on record as “+++ (“+++” equals ≤1 μM)”.

As for `c1ccc2c(Nc3ccc4[nH]ncc4c3)nc(-c3ccncc3)cc2c1` [Compound 48], the “toxicity (compound concentration needed to induce greater than 50 percent of cell loss)” value in data set [1] is reported as “+ (cell loss of greater than 50 percent at a concentration that equals or is greater than 25 μM was represented as)”. The “efficacy (minimal compound concentration needed to increase TFEB nuclear/cytosol ratio by 25%)” value in data set [2] is given as “+ (“+” equals >25 μM)”.

Consider `c1ccc2c(Nc3ccc4[nH]ccc4c3)nc(-c3ccncc3)cc2c1` [Compound 49], for which, in data set [1], the “toxicity (compound concentration needed to induce greater than 50 percent of cell loss)” value was “+ (cell loss of greater than 50 percent at a concentration that equals or is greater than 25 μM was represented as)”. Further, the “efficacy (minimal compound concentration needed to increase TFEB nuclear/cytosol ratio by 25%)” value in data set [2] was “+ (“+” equals >25 μM)”.

Consider `c1ccc2c(Nc3ccc4[nH]ncc4c3)nc(N3CCNCC3)nc2c1` [Compound 50], for which the “toxicity (compound concentration needed to induce greater than 50 percent of cell loss)” value in data set [1] was “+ (cell loss of greater than 50 percent at a concentration that equals or is greater than 25 μM was represented as)”. The “efficacy (minimal compound concentration needed to increase TFEB nuclear/cytosol ratio by 25%)” value in data set [2] is “+ (“+” equals >25 μM)”.
